How the values were obtained:
AChE = test system: AChE; design: method as in PMID 29850593; conditions: cited from earlier work
BChE = test system: BChE; design: method as in PMID 29850593; conditions: cited from earlier work
BACE-1 = biological target: T1, BACE-1 (Homo sapiens, UniProt P56817); experiment: In vitro BACE-1 activity assay (Sigma BACE-1 FRET assay kit); assay type: biochemical
T1 construct: purchased Sigma
Method: The assay was performed according to the manufacturer protocol supplied in BACE-1 activity (Sigma, BACE-1FRET assay kit). […] The BACE-1 substrate solution (50 μM), a BACE-1 enzyme solution (2 μL), and inhibitor solutions were prepared as per the manufacturer’s protocol.
BACE-1 substrate solution was prepared with 1 mg/mL (500 μM) by adding 0.5 ml of DMSO to BACE-1 substrate. 7-Methoxycumarin-4-acetyl-Asn670, Lue 671-Amyloid β/A4 Precursor Protein 770 Fragment 667-(2,4 dinitrophenyl), and Lys-Arg-Arg amide […] salt was used as a substrate for BACE-1. A BACE-1 enzyme solution of ~0.3 unit/μL was prepared. […] The isolated compounds were used for the isolated inhibitor solution preparation. The 5281780 solution (20 μM) with 1% DMSO was prepared after heating the solution at 55 °C for 5 min. The 188316 solution (20 μM) was prepared with 1% DMSO. The 5280443 solution was also prepared with concentration of 20 μM in 1% DMSO. These inhibitor solutions with variable concentrations (1 μM, 2 μM, 3 μM, 4 μM) were used for testing BACE-1 activities. The fluorescence assay buffer (78 μL, 79 μL, 80 μL, 81 μL), a BACE-1 enzyme solution (2 μL), the substrate solution (20 μL), and inhibitor solutions (0 μL, 1 μL, 2 μL, 3 μL, 4 μL) were added to a 96-well plate. Each concentration was considered in triplicate. […] The plate was incubated for 120 min at 37 °C, and the readings were taken. The readings were noted as S120. The percent inhibition was calculated using the formula, percent inhibition = [1 − (S120 − S0)/(C120 − C0)] × 100 [139].

[1] = biological target: Acetylcholinesterase (Human) (Homo sapiens, UniProt P22303); experiment: In vitro AChE activity assay (Ellman); assay type: biochemical
Method: (§1) The inhibitory activities of both AChE and BChE were measured using the spectrophotometric method developed by Ellman. Acetylcholinesterase (Human), butyrylcholinesterase (Human) with […] (ACh), and […] (BCh) were used as their substrates, respectively. The enzyme activity was observed using Varioskan Flash (version 4.00.53), and the reading was observed using SkanIt Software (2.4.5 RE for Varioskan Flash). AChE and BChE solutions of ~0.15 unit/μL were prepared. The stock solution of AChE substrate (2.5 μM) and BChE substrate (2.5 μM) solution was prepared with DMSO, respectively.
(§2) The isolated compound inhibitor solutions were prepared using the same method as discussed in the BACE-1 assay. The sodium phosphate buffer (pH 8) (78 μL, 79 μL, 80 μL, 81 μL), 20 μL of the 5, 5′-dithiobis-(2-nitrobenzoic acid) (DTNB), AChE, and BChE enzyme solution (2 μL), substrate solution (20 μL), and inhibitor solutions (0 μL, 1 μL, 2 μL, 3 μL, 4 μL) were added to a 96-well plate. Each concentration was considered in triplicate. The plate was incubated for 15 min at 25 °C, and the readings were taken at 412 nm. The percentage inhibition was calculated using the formula percentage inhibition = (1 − C/I) × 100, where C and I were the enzyme activities without and with the test sample, respectively.

[2] = biological target: butyrylcholinesterase (Human) (Homo sapiens, UniProt P06276); experiment: In vitro BChE activity assay (Ellman); assay type: biochemical
Method: as §1, §2

[3] = biological target: glycogen synthase kinase-3b; conditions: read-out: IC50, inhibition of glycogen synthase kinase-3b; cited from earlier work
BChE (equine serum) = test system: BChE (equine serum); design: method as in PMID 23529036; conditions: cited from earlier work
AChE (electric eel) = test system: AChE (electric eel); design: method as in PMID 23529036; conditions: cited from earlier work

T1 sequence (P56817 46-501): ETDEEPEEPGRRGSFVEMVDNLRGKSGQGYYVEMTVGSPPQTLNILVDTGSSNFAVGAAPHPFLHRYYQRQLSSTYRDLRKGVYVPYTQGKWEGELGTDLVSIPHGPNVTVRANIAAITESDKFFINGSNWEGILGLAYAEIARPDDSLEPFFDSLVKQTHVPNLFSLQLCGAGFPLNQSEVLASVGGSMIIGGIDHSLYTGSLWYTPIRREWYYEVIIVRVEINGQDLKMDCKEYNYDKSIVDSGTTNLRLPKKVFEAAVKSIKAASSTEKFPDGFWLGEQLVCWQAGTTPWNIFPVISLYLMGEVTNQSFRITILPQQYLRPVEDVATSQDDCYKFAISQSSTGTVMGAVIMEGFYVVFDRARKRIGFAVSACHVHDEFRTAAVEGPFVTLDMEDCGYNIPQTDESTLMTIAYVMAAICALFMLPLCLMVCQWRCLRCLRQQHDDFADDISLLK
Acetylcholinesterase (Human), sequence (P22303 32-614): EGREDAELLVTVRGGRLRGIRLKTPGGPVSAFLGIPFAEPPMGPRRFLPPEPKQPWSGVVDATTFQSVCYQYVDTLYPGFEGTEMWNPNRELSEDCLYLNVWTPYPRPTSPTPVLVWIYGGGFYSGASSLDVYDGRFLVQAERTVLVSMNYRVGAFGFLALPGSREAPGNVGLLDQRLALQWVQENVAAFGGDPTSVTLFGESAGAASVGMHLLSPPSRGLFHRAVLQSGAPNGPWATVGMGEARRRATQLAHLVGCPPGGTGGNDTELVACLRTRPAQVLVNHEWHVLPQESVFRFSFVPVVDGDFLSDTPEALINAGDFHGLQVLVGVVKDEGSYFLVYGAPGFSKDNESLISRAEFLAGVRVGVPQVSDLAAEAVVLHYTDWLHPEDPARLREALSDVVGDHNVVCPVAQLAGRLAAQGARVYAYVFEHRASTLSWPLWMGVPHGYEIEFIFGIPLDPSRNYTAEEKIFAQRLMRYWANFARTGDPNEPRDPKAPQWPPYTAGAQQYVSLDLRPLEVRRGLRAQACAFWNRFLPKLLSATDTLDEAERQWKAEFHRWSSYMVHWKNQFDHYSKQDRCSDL
butyrylcholinesterase (Human), sequence (P06276 29-602): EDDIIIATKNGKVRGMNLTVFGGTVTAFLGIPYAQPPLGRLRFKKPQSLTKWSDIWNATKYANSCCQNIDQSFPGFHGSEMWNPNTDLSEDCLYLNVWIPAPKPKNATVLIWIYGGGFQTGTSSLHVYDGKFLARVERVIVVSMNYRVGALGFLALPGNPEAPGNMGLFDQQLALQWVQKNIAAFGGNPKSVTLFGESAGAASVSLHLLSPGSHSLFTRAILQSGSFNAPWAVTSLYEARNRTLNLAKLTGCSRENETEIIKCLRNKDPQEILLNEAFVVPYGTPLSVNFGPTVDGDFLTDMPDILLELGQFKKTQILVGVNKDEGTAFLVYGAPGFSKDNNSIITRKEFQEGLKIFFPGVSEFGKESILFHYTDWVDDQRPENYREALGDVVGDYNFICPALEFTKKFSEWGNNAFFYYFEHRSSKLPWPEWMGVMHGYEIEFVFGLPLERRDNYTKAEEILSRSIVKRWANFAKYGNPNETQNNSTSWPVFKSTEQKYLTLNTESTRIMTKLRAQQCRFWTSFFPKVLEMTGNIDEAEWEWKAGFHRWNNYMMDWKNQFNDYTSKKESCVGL

COc1cc2c(cc1O)C[C@H]1c3c(cc(O)c(OC)c3-2)CCN1C [Boldine]
IC50 (AChE): 372000 nM
IC50 (BChE): 321000 nM

COc1cc(O)c2c(=O)cc(-c3ccccc3)oc2c1OC [Compound 188316, 7-o-methylwogonin]
IC50 (BACE-1): 2910 ± 40 nM
IC50 [1]: 2460 ± 30 nM
potency relative to eserine ([1]; comparison of IC50 values (Table 4)): ~1.5 fold
IC50 [2]: 1460 ± 20 nM

O=c1cc(-c2ccc(O)cc2)oc2cc(O)cc(O)c12 [Compound 5280443, apigenin]
IC50 (BACE-1): 3790 ± 260 nM
IC50 [3]: 1900 nM
IC50 [1]: 3420 ± 20 nM
IC50 [2]: 1970 ± 10 nM

O=C(C=Cc1ccc(O)c(O)c1)OC1CC(O)(C(=O)O)CC(O)C1OC(=O)C=Cc1ccc(O)c(O)c1 (centres unmarked) [Compound 5281780, 3,4-di-o-caffeoylquinic acid]
IC50 (BACE-1): 3310 ± 120 nM
IC50 [1]: 2140 ± 40 nM
